Entries after “also recorded” stand apart in the source; their conditions may differ.
Columns and labels:
UBE2T = test system: T1, UBE2T; assay: Gel-based ubiquitylation assay (UBE2T/GST-FANCLRING), blot probed for UBE2T; format: biochemical; settings: compound 100 μM, Western blot probed for UBE2T
T1 construct: His6 (N); made in house; host or cells: E. coli Rosetta (DE3)

[1] = test system: mUb-FANCD2 (UBE2T and FANCL-dependent monoubiquitylation of FANCD2); assay: Immunoblot of mUb-FANCD2 formation in U2OS cells; format: cell-based; settings: for level of mUb-FANCD2 in response to HU: CU1 200 μM or CU2 500 μM, 8 h; for level of mUb-FANCD2 in response to HU / level of mUb-FANCD2: HU 2.5 mM; for level of mUb-FANCD2: compound 100 μM, 1 h preincubation, 24 h
Method: U2OS cells were treated with HU and the formation of mUb-FANCD2 in the presence of CU 1, CU2, and CU9 was evaluated relative to a DMSO control. Following a 1-h preincubation with the compounds, cells were treated with 2.5 mM of HU for 24 h. […] Accordingly, cells were treated with a higher concentration of compounds in further experiments.
Figure 3 Cell-based assays with CU1 and CU2: (a) Western blot showing that the formation of mUb-FANCD2(*), in response to HU treatment (2.5 mM, 8 h), is impaired in U2OS cells in the presence of CU1 (200 μM) or CU2 (500 μM). Ratio = mUb-FANCD2/FANCD2 (normalized to DMSO control). mUb-FANCD2 was resolved on a separate gel. PARP1 was used as a loading control for each gel, as well as to assess apoptosis. (b) Quantification of the reduction in mUb-FANCD2, in response to HU treatment (2.5 mM, 8 h) in the presence of CU1 (200 μM) or CU2 (500 μM). Mean calculated from three independent experiments. (c) Western blot showing that formation of mUb-FANCD2 (denoted by an asterisk symbol, *) in response to cisplatin treatment (10 μM) for 6, 12, and 24 h is impaired in U2OS cells in the presence of CU2 (500 μM). Ratio = mUb-FANCD2/FANCD2 (normalized to DMSO control). (d) Cell cycle analyses based upon EdU incorporation in cells treated with HU (2.5 mM, 8 h) in the presence or absence of CU1 (200 μM) or CU2 (500 μM). HU treatment was used for gating purposes. […] TEXT PRINTED IN THE PICTURE: (d) DMSO: S-phase 42.7; G1 29.2; G2-M 27.8 | (d) HU: S-phase 0.24; G1 72.4; G2-M 22.9 | (d) CU1: S-phase 43.4; G1 26.8; G2-M 29.1 | (d) CU2: S-phase 39.7; G1 31.9; G2-M 28.2 DOUBTS OF THE COPYIST ABOUT THIS PICTURE: Panel d print is small, so these digits are best readings: DMSO G2-M 27.8 (8 or 6); CU1 G1 26.8 (6 or 8); CU2 S-phase 39.7 (9 or 8); CU2 G2-M 28.2 (8 or 6) / Panels a and c: the lane ratios printed under the western blots (a: 1.0, 0.64, 0.40; c: 1.0/0.65, 1.0/0.63, 1.0/0.53) were left out because they belong to blots and the picture prints no measure for them […]
Reaction mixtures were incubated for the indicated time at 37 °C and stopped by the addition of 2X reducing SDS -PAGE sample buffer, separated on NuPAGE Novex 4 –12% Bis/Tris gradient gels (Invitrogen) and visualized by Western blotting using the indicated antibodies (Table S3).
Cell culture. U2OS cells were cultured at 37 °C in a humidified atmosphere and 5% (v/v) CO2 in Dulbecco's Modified Eagle Medium (DMEM; Sigma-Aldrich) supplemented with 10% (v/v) fetal bovine serum (FBS), 100 units/ml of penicillin, […] of streptomycin and 292 μg/mL L-glutamine.
Cell extract preparation and immunoblotting. U2OS cells were lysed in buffer containing 50 mM Tris-HCl pH 7.5, 2% SDS, 10 mM NEM, cocktail protease inhibitor (Roche) and phosphatase inhibitor cocktail followed by sonication 100 µg of extracts were boiled for 5 mins at 95 °C in 5X loading buffer and loaded onto NuPAGE Novex 4–12% Bis/Tris gradient gels
(Invitrogen), or NuPAGE Novex 3-8% Tris/Acetate gradient gels (Invitrogen) for detection of mUb-FANCD2. After separation the gels were transferred to PVDF and the membranes were blocked with Tris-buffered saline containing 0.1% (v/v) Tween-20 (TBST) and 5% (v/v) bovine serum albumin (BSA) and incubated with the indicated primary and secondary antibodies. mUb-FANCD2 intensity was quantified using Image Studio (LI-COR).
IncuCyte cell proliferation assays. 2000 U2OS cells were seeded per well in 96-well plates and treated with compounds 24 hours afterwards. After 1 hour of compound treatment, 15 µM carboplatin (Sigma-Aldrich) was added and the cells were cultured in an incubator with an IncuCyte microscopy -platform (Essen BioScience). Phase -contrast images were acquired every 6 hours for 8 days until DMSO-carboplatin treated cells reached >80% confluence. Cell proliferation was monitored as the occupied area (% confluence) of cell images over time and calculated as percentage confluence over time. Cell confluency […]

Row | Structure (SMILES) | ubiquitylation of UBE2T (UBE2T) | ubiquitylation of UBE2T (UBE2T; listed as 12) | level of mUb-FANCD2 in response to HU [1] | level of mUb-FANCD2 [1] | level of mUb-FANCD2 in response to cisplatin ([1]; CU2 500 μM, cisplatin 10 μM for 6, 12 and 24 h) | ubiquitylation of UBE2T (UBE2T; listed as 2) | ubiquitylation of UBE2T (UBE2T; listed as 9)
1 | NC(=O)[C@@H]1CCCN1C(=O)c1cc(-n2cccc2)ccc1Cl [CU12] | prevented the ubiquitylation of UBE2T | essentially completely inhibited |  |  |  |  | 
2 | NCCN1C(=O)CC[C@H]2CN(Cc3cccc(-c4ccco4)c3)CC[C@H]21 [CU1] | did not affect ubiquitylation of either UBE2T or UBE1; also recorded: unaffected |  | reduced the level of mUb-FANCD2 | no significant decrease in the level of mUb-FANCD2 |  |  | 
3 | CCN1CCN(c2cc(C)nc3nc(CN4CCCCC4C)nn23)CC1 (stereo not shown) [CU2] | did not affect ubiquitylation of either UBE2T or UBE1 |  | reduced the level of mUb-FANCD2 | no significant decrease in the level of mUb-FANCD2 | reduced the level of mUb-FANCD2 | unaffected | 
4 | Cc1nnc(N(C)CC2CCN(CC(C)O)CC2)c(C#N)c1C (stereo not shown) [CU9] | did not affect ubiquitylation of either UBE2T or UBE1 |  |  | no significant decrease in the level of mUb-FANCD2 |  |  | unaffected
